From paper PMC5522071, “Preclinical development of G1T38: A novel, potent and selective inhibitor of cyclin dependent kinases 4/6 for use as an oral antineoplastic in patients with CDK4/6 sensitive tumors” (Oncotarget, 2017)

Columns and labels:
[1] = molecular target: T1, CDK6/Cyclin D3 (Homo sapiens, UniProt Q00534); type: biochemical; settings: 12-point dose response, singlicate, at Km for ATP
T1 construct: purchased Nanosyn, Inc. (contract assay)

[2] = molecular target: FLT3 (ITD, D835V) (Homo sapiens, UniProt P36888, D835V/ITD); test: KdELECT Kd determination (DiscoveRx); type: binding
Protocol: G1T38 was profiled at DiscoveRx (Fremont, CA) using their KINOMEscan and scanMAX screening technology. Briefly, G1T38 was tested at 100 and 1000 times the biochemical IC50 as described in Figure 1B. All target kinases that responded to greater than 90% inhibition were tested as individuals for Kd determination as described in Supplementary Table 1.
Supplementary Table 1: G1T38 Kinase Interactions
KdELECT® (DiscoveRx) was used as a follow-up to quantify binding affinity of G1T38-kinase interactions identified in the primary screen. Inhibitor binding constants (Kd values) were calculated from duplicate 11-point dose-response curves for targets that elicited >90% inhibition at 100 nM.

[3] = tested on: A2058; test: Cell proliferation, CellTiter-Glo; type: cell-based; settings: Homo sapiens, 144 h; A2058, Melanoma, RB -; four or six days; read-out: G1T38 EC50, growth inhibition
Protocol: (§1) To assess the capacity of G1T38 to inhibit proliferation of tumor cell lines, a broad panel of CDK4/6 dependent and independent lines was evaluated using CellTiter Glo (Table 2).
(§2) SupT1, Daudi, MCF7, ZR-75-1, A2058, WM2664, and H69 cells were seeded at 1000 cells per well; MV-4-11 and BV173 cells were plated at 4000 cells per well; Tom-1 cells were plated at 8,000 cells per well; NALM-1 cells were plated at 20,000 cells per well in Costar 3903 96 well plates. After 24 hours, plates were dosed with G1T38 at a nine-point dose concentration from 10 μM to 1 nM. Cell viability was determined after four or six days using the CellTiter-Glo® assay (Promega; Madison, WI) following manufacturer's recommendations. Plates were processed on BioTek (Winooski, VT) Synergy2 multi-mode plate reader and data analyzed using GraphPad (San Diego, CA) Prism 5 statistical software.

[4] = tested on: BV173; test: Cell proliferation, CellTiter-Glo; type: cell-based; settings: Homo sapiens, BV-173, 144 h; BV173, Ph1+ leukemia, RB +; four or six days; read-out: G1T38 EC50, growth inhibition
Protocol: as §1, §2

[5] = tested on: Daudi; test: Cell proliferation, CellTiter-Glo; type: cell-based; settings: Homo sapiens, 144 h, Lymphoma, RB +, four or six days, read-out: G1T38 EC50, growth inhibition
Protocol: as §1, §2

[6] = tested on: H69; test: Cell proliferation, CellTiter-Glo; type: cell-based; settings: Homo sapiens, NCI-H69, 144 h; H69, SCLC, RB -; four or six days; read-out: G1T38 EC50, growth inhibition
Protocol: as §1, §2

[7] = tested on: MCF7; test: Cell proliferation, CellTiter-Glo; type: cell-based; settings: Homo sapiens, 144 h; MCF7, ER+ breast cancer, RB +; four or six days; read-out: G1T38 EC50, growth inhibition
Protocol: as §1, §2

[8] = tested on: MV4-11; test: Cell proliferation, CellTiter-Glo; type: cell-based; settings: Homo sapiens, 144 h; MV4-11, B cell leukemia, RB +; four or six days; read-out: G1T38 EC50, growth inhibition
Protocol: as §1, §2

[9] = tested on: NALM1; test: Cell proliferation, CellTiter-Glo; type: cell-based; settings: 144 h; NALM1, Leukemia, RB -; four or six days; read-out: G1T38 EC50, growth inhibition
Protocol: as §1, §2

[10] = tested on: SupT1; test: Cell proliferation, CellTiter-Glo; type: cell-based; settings: Homo sapiens, SUP-T1, 144 h; SupT1, Lymphoma, RB +; four or six days; read-out: G1T38 EC50, growth inhibition
Protocol: as §1, §2

[11] = tested on: Tom1; test: Cell proliferation, CellTiter-Glo; type: cell-based; settings: 144 h; Tom1, Ph1+ leukemia, RB +; four or six days; read-out: G1T38 EC50, growth inhibition
Protocol: as §1, §2

[12] = tested on: WM2664; test: Cell proliferation, CellTiter-Glo; type: cell-based; settings: Homo sapiens, WM 266-4, 144 h; WM2664, Melanoma, RB +; four or six days; read-out: G1T38 EC50, growth inhibition
Protocol: as §1, §2

[13] = tested on: ZR-75-1; test: Cell proliferation, CellTiter-Glo; type: cell-based; settings: Homo sapiens, 144 h; ZR-75-1, ER+ breast cancer, RB +; four or six days; read-out: G1T38 EC50, growth inhibition
Protocol: as §1, §2

[14] = molecular target: JAK2 (Homo sapiens, UniProt O60674); test: JAK2 inhibition; type: biochemical
[15] = tested on: neutrophils; test: GLP 28-day toxicology study, CBC; type: in vivo, beagle dogs; settings: 1, 2.5 and 5 mg/kg/day
Protocol: However, from 14 to 25 days, cells reached a steady state level, which was readily reversible once dosing was stopped (Figure 5E).
(§3) Beagle dogs (5/ sex) were dosed once daily for 28 consecutive days via oral gavage. The dose levels were 1, 2.5 and 5 mg/kg/day and administered at a dose volume of 5 mL/kg. Hematology samples (1ml/ time point) were collected in K3EDTA tubes twice pre-test and then on days 7, 14, 21, and 25 during the dosing period and on days 35, and 42 during the recovery period. Complete blood counts were performed and results reported. All studies were conducted utilizing methods and protocols in accordance with IACUC approval at MPI Research (Mattawan, MI).

[16] = Accumulation potential in plasma, 28-day repeat dose; type: in vivo, beagle dogs; settings: Dog, 28-day daily oral treatment
Protocol: as §3
28-day daily oral treatment
The accumulation ratio (R) was calculated for each animal

[17] = tested on: MCF7 murine tumors; test: Plasma exposure versus % TGI, nonlinear regression; type: in vivo, mice; settings: AUC 0-last single dose vs TGI, MCF7, 28 days

T1 sequence (Q00534 whole entry): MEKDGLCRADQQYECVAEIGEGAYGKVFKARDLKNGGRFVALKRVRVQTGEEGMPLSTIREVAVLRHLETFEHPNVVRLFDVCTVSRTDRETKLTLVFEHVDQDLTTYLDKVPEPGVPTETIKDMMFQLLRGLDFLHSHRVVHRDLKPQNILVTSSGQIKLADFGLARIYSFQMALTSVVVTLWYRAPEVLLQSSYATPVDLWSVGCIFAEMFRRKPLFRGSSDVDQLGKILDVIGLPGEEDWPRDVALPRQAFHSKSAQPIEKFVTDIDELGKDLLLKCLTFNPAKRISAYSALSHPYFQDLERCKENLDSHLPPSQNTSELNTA
T1 sequence (P30281 whole entry partner): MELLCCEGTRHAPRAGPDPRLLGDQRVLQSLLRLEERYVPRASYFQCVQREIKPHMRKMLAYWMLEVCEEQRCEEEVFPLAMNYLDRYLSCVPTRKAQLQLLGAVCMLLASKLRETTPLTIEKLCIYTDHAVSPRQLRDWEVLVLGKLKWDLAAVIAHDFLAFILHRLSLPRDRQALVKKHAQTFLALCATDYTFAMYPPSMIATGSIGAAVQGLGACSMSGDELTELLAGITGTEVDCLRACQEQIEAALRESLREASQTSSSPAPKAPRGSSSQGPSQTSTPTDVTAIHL
JAK2, sequence (O60674 whole entry, species assumed): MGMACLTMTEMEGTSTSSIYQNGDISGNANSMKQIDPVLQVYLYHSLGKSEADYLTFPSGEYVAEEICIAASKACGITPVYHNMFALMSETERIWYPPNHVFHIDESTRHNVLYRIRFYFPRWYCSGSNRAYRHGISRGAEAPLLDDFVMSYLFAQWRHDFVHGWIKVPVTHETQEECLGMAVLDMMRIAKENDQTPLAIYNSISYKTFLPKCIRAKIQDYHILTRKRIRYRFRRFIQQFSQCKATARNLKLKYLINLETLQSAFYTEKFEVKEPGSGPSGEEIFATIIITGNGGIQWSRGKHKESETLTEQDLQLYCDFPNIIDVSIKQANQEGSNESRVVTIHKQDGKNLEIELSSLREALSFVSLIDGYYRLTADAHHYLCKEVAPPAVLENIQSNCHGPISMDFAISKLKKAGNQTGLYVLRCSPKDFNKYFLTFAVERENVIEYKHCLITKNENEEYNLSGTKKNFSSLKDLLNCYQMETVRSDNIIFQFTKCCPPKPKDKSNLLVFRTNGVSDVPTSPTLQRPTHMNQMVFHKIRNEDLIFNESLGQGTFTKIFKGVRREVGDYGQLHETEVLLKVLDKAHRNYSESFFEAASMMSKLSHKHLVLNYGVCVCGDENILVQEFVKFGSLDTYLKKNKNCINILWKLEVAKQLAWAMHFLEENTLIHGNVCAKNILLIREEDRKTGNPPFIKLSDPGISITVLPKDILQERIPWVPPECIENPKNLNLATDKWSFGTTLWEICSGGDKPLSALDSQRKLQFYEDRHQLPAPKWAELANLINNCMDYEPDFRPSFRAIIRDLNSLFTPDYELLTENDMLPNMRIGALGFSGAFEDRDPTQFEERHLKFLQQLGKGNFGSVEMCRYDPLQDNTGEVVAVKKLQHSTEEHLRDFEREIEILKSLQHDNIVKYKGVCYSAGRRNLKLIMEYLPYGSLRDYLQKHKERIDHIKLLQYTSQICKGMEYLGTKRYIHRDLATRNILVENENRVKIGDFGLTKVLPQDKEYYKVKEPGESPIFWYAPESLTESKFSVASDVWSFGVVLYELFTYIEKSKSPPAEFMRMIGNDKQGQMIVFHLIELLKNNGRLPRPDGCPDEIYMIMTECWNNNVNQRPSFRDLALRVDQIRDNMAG

Structure (SMILES): CC(C)N1CCN(c2ccc(Nc3ncc4cc5n(c4n3)C3(CCCCC3)CNC5=O)nc2)CC1.Cl.Cl [G1T38, 2′-((5-(4-isopropylpiperazin-1-yl)pyridin-2-yl)amino)-7′, 8′dihydro-6′Hspiro[cyclohexane1,9′ pyrazino[1′,2′:1,5]pyrrolo[2,3-d]pyrimidin]-6′-one di-hydrochloride]
- IC50 [1]: 2 nM
- Kd [2]: 22 nM
- EC50 [3]: 2690 nM
- EC50 [4]: 296 nM
- EC50 [5]: 784 nM
- EC50 [6]: 2920 nM
- EC50 [7]: 52 nM
- EC50 [8]: 23 nM
- EC50 [9]: > 10 µM
- EC50 [10]: 57 nM
- EC50 [11]: 232 nM
- EC50 [12]: 125 nM
- EC50 [13]: 61 nM
- IC50 [14]: > 500 nM
- neutrophil course during 28 days daily oral treatment [15]: neutrophils decreased rapidly in a dose dependent manner during the first 14 days
- Mean Accumulation Ratio (AUC0-24hr Day 28 ÷ Day 1) ([16]; 1 mg/kg): 1.08
- Mean Accumulation Ratio (AUC0-24hr Day 28 ÷ Day 1) ([16]; 2.5 mg/kg): 1.3
- Mean Accumulation Ratio (AUC0-24hr Day 28 ÷ Day 1) ([16]; 5 mg/kg): 1.14
- EC50 (plasma exposure vs % TGI) lower than palbociclib [17]: 3.8 fold
